From patent publication US20080269251A1, “Substituted Pyrazinone Derivatives as Alpha2C-Adrenoreceptor Antagonists” (priority 2005, published 2008) come the findings set out here.

The target in assay [1] is T1, human adrenergic-α2A receptor (Homo sapiens, UniProt P08913).
T1 construct: expressed in transfected cells; host or cells: CHO cells, stably transfected; membrane preparation
T1 sequence (P08913 1-465): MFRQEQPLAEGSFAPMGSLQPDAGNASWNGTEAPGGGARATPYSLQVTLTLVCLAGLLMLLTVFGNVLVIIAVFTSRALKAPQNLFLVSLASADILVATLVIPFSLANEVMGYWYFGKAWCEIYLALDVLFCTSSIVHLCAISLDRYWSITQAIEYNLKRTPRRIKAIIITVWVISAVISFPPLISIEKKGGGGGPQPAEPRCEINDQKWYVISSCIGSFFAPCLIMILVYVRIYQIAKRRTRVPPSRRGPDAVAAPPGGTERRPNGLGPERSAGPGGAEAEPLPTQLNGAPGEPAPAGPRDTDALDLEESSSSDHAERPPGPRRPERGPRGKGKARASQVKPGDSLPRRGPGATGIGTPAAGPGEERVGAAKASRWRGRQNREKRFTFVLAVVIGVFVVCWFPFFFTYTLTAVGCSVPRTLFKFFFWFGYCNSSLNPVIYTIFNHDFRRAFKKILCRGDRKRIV
As to the kind of experiment: Radioligand binding experiment for hα2A-adrenergic receptor ([3H]raulwolscine). As to conditions: [3H]raulwolscine 1 nM, 60 minutes at 25° C.; for IC50: read-out: h-α2A pIC50 (converted). The method, then: (§1) The interaction of the compounds of Formula (I) with α2C-adrenoceptor receptors was assessed in in vitro radioligand binding experiments. In general, a low concentration of a radioligand with a high binding affinity for a particular receptor or transporter is incubated with a sample of a tissue preparation enriched in a particular receptor or transporter or with a preparation of cells expressing cloned human receptors in a buffered medium. During the incubation, the radioligand binds to the receptor or transporter. When equilibrium of binding is reached, the receptor bound radioactivity is separated from the non-bound radioactivity, and the receptor- or transporter-bound activity is counted. The interaction of the test compounds with the receptor is assessed in competition binding experiments. Various concentrations of the test compound are added to the incubation mixture containing the receptor- or transporter preparation and the radioligand. The test compound in proportion to its binding affinity and its concentration inhibits binding of the radioligand. The radioligand used for […] receptor binding was [^3H]-raulwolscine.
(§2) CHO cells, stabile transfected with human adrenergic-α2A, -α2B or α2C receptor cDNA, were cultured in Dulbecco's Modified Eagle's Medium (DMEM)/Nutrient mixture Ham's F12 (ratio 1:1)(Gibco, Gent-Belgium) supplemented with 10% heat inactivated fetal calf serum (Life Technologies, Merelbeke-Belgium) and antibiotics (100 IU/ml penicillin G, 100 μg/ml streptomycin sulphate, 110 μg/ml pyruvic acid and 100 μg/ml L-glutamine). One day before collection, cells were induced with 5 mM sodiumbutyrate. Upon 80-90% of confluence, cells were scraped in phosphate buffered saline without Ca^2+ and Mg^2+ and collected by centrifugation at 1500×g for 10 minutes. The cells were homogenised in Tris-HCl 50 mM using an Ultraturrax homogenizer and centrifuged for 10 minutes at 23,500×g. The pellet was washed once by resuspension and rehomogenization and the final pellet was resuspended in Tris-HCl, divided in 1 ml aliquots and stored at −70° C.
(§3) Membranes were thawed and re-homogenized in incubation buffer (glycylglycine 25 mM, pH 8.0). In a total volume of 500 μl, 2-10 μg protein was incubated with [^3H]raulwolscine (NET-722) (New England Nuclear, USA) (1 nM final concentration) with or without competitor for 60 minutes at 25° C. followed by rapid filtration over GF/B filter using a Filtermate196 harvester (Packard, Meriden, Conn.). Filters were rinsed extensively with ice-cold rinsing buffer (Tris-HCl 50 mM pH 7.4). Filter-bound radioactivity was determined by scintillation counting in a Topcount (Packard, Meriden, Conn.) and results were expressed as counts per minute (cpm). Non-specific binding was determined in the presence of 1 μM oxymetazoline for hα2A- and hα2B receptors and 1 μM spiroxatrine for hα2C receptors.
(§4) Data from assays in the presence of compound were calculated as a percentage of total binding measured in the absence of test compound. Inhibition curves, plotting percent of total binding versus the log value of the concentration of the test compound, were automatically generated, and sigmoidal inhibition curves were fitted using non-linear regression. The pIC50 values of test compounds were derived from individual curves.

In assay [2] the target is T2, human adrenergic-α2C receptor (Homo sapiens, UniProt P18825).
T2 construct: expressed in transfected cells; host or cells: CHO cells, stably transfected; membrane preparation
T2 sequence (P18825 1-462): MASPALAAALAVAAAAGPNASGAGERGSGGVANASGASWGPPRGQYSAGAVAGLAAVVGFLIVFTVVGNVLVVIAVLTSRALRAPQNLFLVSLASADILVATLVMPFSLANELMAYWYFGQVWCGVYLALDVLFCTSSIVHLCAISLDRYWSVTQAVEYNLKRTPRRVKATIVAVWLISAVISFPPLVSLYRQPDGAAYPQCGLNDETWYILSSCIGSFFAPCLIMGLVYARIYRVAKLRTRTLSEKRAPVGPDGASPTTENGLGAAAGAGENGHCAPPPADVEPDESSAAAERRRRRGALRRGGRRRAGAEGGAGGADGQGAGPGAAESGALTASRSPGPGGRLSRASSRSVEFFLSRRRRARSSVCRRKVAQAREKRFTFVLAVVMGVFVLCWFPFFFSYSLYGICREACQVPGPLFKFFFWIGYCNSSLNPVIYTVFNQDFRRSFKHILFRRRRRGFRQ
The experiment in a line: Radioligand binding experiment for hα2C-adrenoceptor ([3H]raulwolscine). To be noted: [3H]raulwolscine 1 nM, 60 minutes at 25° C.; for IC50: read-out: h-α2C pIC50 (converted). Here is the method:
as §1, §2, §3, §4

For the next assay, the target named is T3, 5HT-transporter (Homo sapiens, UniProt P31645).
T3 construct: Human platelet membranes (Oceanix Biosciences Corporation, Hanover, Md., USA) were thawed; tissue Oceanix Biosciences Corporation, Hanover, Md., USA; host or cells: human platelet membranes
The experiment in a line: Binding experiment for the 5HT-transporter ([3H]paroxetine, human platelet membranes). To be noted: [3H]paroxetine 0.5 nM, 60 min at 25° C.; for IC50: read-out: h-5HTT pIC50 (converted). Here is the method: as §1
Human platelet membranes (Oceanix Biosciences Corporation, Hanover, Md., USA) were thawed, diluted in buffer (Tris-HCl 50 mM, 120 mM NaCl and 5 mM KCl) and quickly (max 3 s) homogenised with an Ultraturrax homogenizer. […] Incubation was stopped by rapid filtration of the incubation mixture over GF/B filters, pre-wetted with 0.1% polyethyleneamine, using a Filtermate196 harvester (Packard, Meriden, Conn.). Filters were rinsed extensively with ice-cold buffer and radioactivity on the filters was counted in a Topcount liquid scintillation counter (Packard, Meriden, Conn.). Data were expressed as cpm. Imipramine (at 1 μM final concentration) was used to determine the non-specific binding.
as §4

Structures are written as SMILES.

T3 sequence (P31645 whole entry): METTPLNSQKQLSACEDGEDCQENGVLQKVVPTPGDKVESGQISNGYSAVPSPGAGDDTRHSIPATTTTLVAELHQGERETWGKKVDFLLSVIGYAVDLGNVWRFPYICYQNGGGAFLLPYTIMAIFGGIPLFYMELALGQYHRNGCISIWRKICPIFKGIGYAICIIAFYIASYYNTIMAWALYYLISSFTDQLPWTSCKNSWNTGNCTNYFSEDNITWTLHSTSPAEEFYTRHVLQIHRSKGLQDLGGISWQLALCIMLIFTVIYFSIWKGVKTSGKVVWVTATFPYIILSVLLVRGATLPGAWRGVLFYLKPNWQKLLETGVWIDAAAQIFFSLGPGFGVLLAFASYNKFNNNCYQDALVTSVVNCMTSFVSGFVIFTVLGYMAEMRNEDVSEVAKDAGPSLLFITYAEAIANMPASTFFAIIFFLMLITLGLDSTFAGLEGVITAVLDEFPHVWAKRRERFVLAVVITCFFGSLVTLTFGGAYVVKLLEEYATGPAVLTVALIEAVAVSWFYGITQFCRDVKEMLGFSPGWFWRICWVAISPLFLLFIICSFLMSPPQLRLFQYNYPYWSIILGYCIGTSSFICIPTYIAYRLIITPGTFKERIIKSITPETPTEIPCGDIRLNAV

Turning to `O=C(NCc1ccc(-n2ccnc(NC3CCN(Cc4ccc5ccccc5c4)CC3)c2=O)cc1)C1CCCO1` (racemic) [1-99], the “h-α2A pIC50” value in assay [1] is recorded as 6.2. In addition, in assay [2], the “h-α2C pIC50” value came to 8.1. The “h-5HTT pIC50” value on 5HT-transporter is given as 7.7.
`NCc1ccc(-n2ccnc(NC3CCN(Cc4ccc5ccccc5c4)CC3)c2=O)cc1` [1-01]: the IC50 in assay [1] is 200 nM; in assay [2], 20 nM; at 5HT-transporter, 20 nM.
As to `NCc1ccc(Cn2ccnc(NC3CCN(Cc4ccc5ccccc5c4)CC3)c2=O)cc1` [1-02], the IC50 in assay [1] was 50.1 nM; in assay [2], 12.6 nM; on 5HT-transporter, 63.1 nM.
With `NCCCn1ccnc(NC2CCN(Cc3ccc4ccccc4c3)CC2)c1=O` [1-03], the values for the IC50 (in assay [1]; in assay [2]; on 5HT-transporter) were 200 nM, 50.1 nM and 200 nM, respectively.
For `CNCCCn1ccnc(NC2CCN(Cc3ccc4ccccc4c3)CC2)c1=O` [1-04], the IC50 in assay [1] was 251 nM; in assay [2], 25.1 nM; on 5HT-transporter, 251 nM.
Turning to `CCCNCc1ccc(-n2ccnc(NC3CCN(Cc4ccc5ccccc5c4)CC3)c2=O)cc1` [1-06], the results for the IC50 (in assay [1]; in assay [2]; at 5HT-transporter) were 251 nM, 10 nM and 20 nM, respectively.
With `O=c1c(NC2CCN(Cc3ccc4ccccc4c3)CC2)nccn1-c1ccc(CNCCF)cc1` [1-07], the IC50 in assay [1] was 126 nM; in assay [2], 6.31 nM; at 5HT-transporter, 7.94 nM.
On to `O=c1c(NC2CCN(Cc3ccc4ccccc4c3)CC2)nccn1-c1ccc(CNCCF)c(F)c1` [1-08], for which the IC50 is 126 nM in assay [1], 7.94 nM in assay [2] and 10 nM on 5HT-transporter.
The matching figures for `CCNC(=O)Cc1ccc(-n2ccnc(NC3CCN(Cc4ccc5ccccc5c4)CC3)c2=O)cc1` [1-10]: 398 nM, 31.6 nM and 15.8 nM.
With `CCCNC(=O)Cc1ccc(-n2ccnc(NC3CCN(Cc4ccc5ccccc5c4)CC3)c2=O)cc1` [1-11], the figures for the IC50 (in assay [1]; in assay [2]; at 5HT-transporter) were 501 nM, 20 nM and 20 nM, respectively.
On to `CN(C)CCCn1ccnc(NC2CCN(Cc3ccc4ccccc4c3)CC2)c1=O` [1-12], for which the results for the IC50 (in assay [1]; in assay [2]; on 5HT-transporter) were 200 nM, 31.6 nM and 251 nM, respectively.
The matching figures for `CCCN(C)C(=O)Cn1ccnc(NC2CCN(Cc3ccc4ccccc4c3)CC2)c1=O` [1-13]: 501 nM, 63.1 nM and 2000 nM.
Take `CN(CCF)Cc1ccc(-n2ccnc(NC3CCN(Cc4ccc5ccccc5c4)CC3)c2=O)cc1` [1-14]: the “h-α2A pIC50” value in assay [1] was 6.9. For the same molecule, the “h-α2C pIC50” value in assay [2] is 8.1. The “h-5HTT pIC50” value on 5HT-transporter is listed as 7.8.
Consider `CN(C)C(=O)Cn1ccnc(NC2CCN(Cc3ccc4ccccc4c3)CC2)c1=O` [1-15], for which the figures for the IC50 (in assay [1]; in assay [2]; at 5HT-transporter) were 398 nM, 126 nM and 3160 nM, respectively.
As to `CN(C(=O)Cn1ccnc(NC2CCN(Cc3ccc4ccccc4c3)CC2)c1=O)C1CCCCC1` [1-16], the values for the IC50 (in assay [1]; in assay [2]; on 5HT-transporter) were 316 nM, 25.1 nM and 251 nM, respectively.
In the case of `CCCCN(Cc1ccccc1)C(=O)Cn1ccnc(NC2CCN(Cc3ccc4ccccc4c3)CC2)c1=O` [1-18], the IC50 was 200 nM in assay [1], 39.8 nM in assay [2] and 79.4 nM at 5HT-transporter.
Take `O=C(Cn1ccnc(NC2CCN(Cc3ccc4ccccc4c3)CC2)c1=O)NCC(c1ccccc1)c1ccccc1` [1-19]: the IC50 in assay [1] was 398 nM; in assay [2] it was 63.1 nM; on 5HT-transporter, 79.4 nM.
The matching figures for `CCOC(CN(Cc1ccccc1)C(=O)Cn1ccnc(NC2CCN(Cc3ccc4ccccc4c3)CC2)c1=O)OCC` [1-20]: 398 nM, 25.1 nM and 100 nM.
With `COCCN(C)Cc1ccc(-n2ccnc(NC3CCN(Cc4ccc5ccccc5c4)CC3)c2=O)cc1` [1-21], the IC50 in assay [1] was 251 nM; in assay [2], 15.8 nM; on 5HT-transporter, 15.8 nM.
For the molecule `COCCNCc1ccc(-n2ccnc(NC3CCN(Cc4ccc5ccccc5c4)CC3)c2=O)cc1` [1-22], the IC50 was 200 nM in assay [1], 15.8 nM in assay [2] and 15.8 nM at 5HT-transporter.
On to `CCCC(=O)Nc1cccc(-n2ccnc(NC3CCN(Cc4ccc5ccccc5c4)CC3)c2=O)c1` [1-23], for which the IC50 was 39.8 nM in assay [1], 10 nM in assay [2] and 6.31 nM on 5HT-transporter.
Consider `CCCC(=O)NCc1ccc(-n2ccnc(NC3CCN(Cc4ccc5ccccc5c4)CC3)c2=O)cc1` [1-24], for which the results for the IC50 (in assay [1]; in assay [2]; at 5HT-transporter) were 316 nM, 25.1 nM and 6.31 nM, respectively.
Take `CCCC(=O)NCc1ccc(-n2ccnc(NC3CCN(Cc4ccc5ccccc5c4)CC3)c2=O)cc1OC` [1-25]: the IC50 in assay [1] is 631 nM; in assay [2], 39.8 nM; on 5HT-transporter it was 12.6 nM.
The matching figures for `CC(CC(=O)NCc1ccc(-n2ccnc(NC3CCN(Cc4ccc5ccccc5c4)CC3)c2=O)cc1)CC(C)(C)C` (stereo not shown) [1-27]: 631 nM, 63.1 nM and 20 nM.
For the molecule `O=C(CC1CCCC1)NCc1ccc(-n2ccnc(NC3CCN(Cc4ccc5ccccc5c4)CC3)c2=O)cc1` [1-28], the “h-α2A pIC50” value in assay [1] amounted to 6.3. Also, the “h-α2C pIC50” value in assay [2] is recorded as 7.5. Further, at 5HT-transporter, the “h-5HTT pIC50” value worked out at 8.1.
As for `O=c1c(NC2CCN(Cc3ccc4ccccc4c3)CC2)nccn1-c1ccc(CNCC2CCCO2)cc1` (stereo not shown) [1-79b], the IC50 in assay [2] is 6.31 nM; at 5HT-transporter, 2.51 nM.
For `O=C1c2ccccc2C(=O)N1CC#CCn1ccnc(NC2CCN(Cc3ccc4ncccc4c3)CC2)c1=O` [9-11], the IC50 in assay [2] is 12.6 nM.
The same measure, in the same setting: to `O=C1c2ccccc2C(=O)N1CC#CCn1ccnc(NC2CCN(Cc3ccc4ncccc4c3)CC2)c1=O` [9-30] belongs 31.6 nM.
